Measured values published in publication PMC1794076, “Bioinorganic Chemistry in Thyroid Gland: Effect of Antithyroid Drugs on Peroxidase-Catalyzed Oxidation and Iodination Reactions” (Bioinorganic Chemistry and Applications, 2006).
Like-named read-outs stand apart in the source and are kept apart here.

Key:
lactoperoxidase (LPO) [1] = test system: lactoperoxidase (LPO); parameters: method as in PMID 16248663; conditions: cited from earlier work
lactoperoxidase (LPO) [2] = test system: lactoperoxidase (LPO); parameters: method as in PMID 16855736; conditions: cited from earlier work
[3] = parameters: method as in earlier work; conditions: cited from earlier work
[4] = Glutathione peroxidase (GPx)-like reduction of H2O2 in the presence of thiols (GSH); format: biochemical; conditions: catalytic reduction of H2O2 with thiols such as GSH
Excerpt: Doerge and others have shown that mammalian peroxidases including LPO may activate the antithyroid drugs through S-oxygenation to produce the corresponding sulfoxides or sulfinic acids. They have also shown that the suicide inactivation of LPO and TPO by MMI proceeds through the S-oxygenation of the thione moiety to form a reactive sulfinic acid, which binds covalently to the prosthetic heme and irreversibly blocks enzyme activity. Given the higher reactivity of selenium compounds as compared with the sulfur derivatives toward oxidation, it is possible that the facile oxidation of the selenium compounds may lead to an efficient inhibition of LPO activity. […] The LPO activity was measured several times by increasing the time for the reaction of the test compounds with H2O2. Remarkably, MSeI (2) inhibited the enzyme within few seconds even at lower concentrations, which can be ascribed to the facile oxidation of the reactive selenolate group in 2 (MSeI) by H2O2 or by the oxidized enzyme. […] The initial rates (v0) derived from various concentrations of H2O2 were plotted against the concentration of H2O2. […] The reduction of H2O2 by 2 may become more efficient in the presence of suitable thiols such as GSH because this process may constitute a redox cycle involving a catalytic reduction of H2O2 (glutathione peroxidase (GPx) activity). […]

[5] = parameters: method as in PMID 14995183, PMID 16248663; conditions: oxidizes in air to the corresponding diselenide; cited from earlier work

Compound: Cn1ccnc1[Se][Se]c1nccn1C [compound 8]
- Inhibition of LPO-catalyzed oxidation (in words) (lactoperoxidase (LPO) [1]; identical experimental conditions as for the IC50 determination): does not show any noticeable inhibition
- Inhibition of LPO-catalyzed iodination (in words) (lactoperoxidase (LPO) [2]; identical conditions as the IC50 determination): did not show any noticeable inhibition

Compound: CCCc1cc(=O)[nH]c(=S)[nH]1 [PTU, 6-n-propyl-2-thiouracil]
- hydrogen-bond (hard) basicity pk HB value [3]: ~1.32

Compound: Cn1cc[nH]c1=S [MMI, methimazole]
- Recovery of LPO activity at lower compound and higher H2O2 concentration (lactoperoxidase (LPO) [1]; 10 μM compound, 230 μM H2O2): could not be recovered
- LPO activity in the presence of compound (lactoperoxidase (LPO) [1]; 40 μM compound, ABTS oxidation, Figure 3): completely inhibited
- Recovery of LPO activity by increasing H2O2 concentration (lactoperoxidase (LPO) [1]; 40 μM compound, initial rates vs H2O2 concentration, LPO 6.5 nM, Figure 3): could not be recovered
- IC50 (lactoperoxidase (LPO) [1]; LPO-catalyzed oxidation of ABTS with H2O2, concentration causing 50% inhibition, at least three independent experiments): 7 ± 1.1 µM
- IC50 (lactoperoxidase (LPO) [2]; HPLC assay, KI, L-tyrosine, H2O2, LPO, fixed H2O2 concentration, read-out: IC50, inhibition of LPO-catalyzed iodination of L-tyrosine): 5.2 µM
- hydrogen-bond (hard) basicity pk HB value [3]: 2.11

Compound: Cn1cc[nH]c1=[Se] [MSeI]
- GPx activity (in words) [4]: high
- Stability of the zwitterionic form in air [5]: unstable
